Reference: US8815829B2, “3′-azido purine nucleotide prodrugs for treatment of viral infections” (priority 2008, dated 2014)
Read-outs that look alike come from different tables or passages of the source.

What was measured:
[1] = tested on: HIV-1/LAI; assay: Anti-HIV-1 assay in PBM cells; format: cell-based
Method: Stock solutions (20-40 mM) of the compounds were prepared in sterile DMSO and then diluted to the desired concentration in growth medium. Cells were infected with the prototype HIV-1LAI at a multiplicity of infection of 0.01. Virus obtained from the cell supernatant was quantified on day 6 after infection by a reverse transcriptase assay using (rA)n·(dT)12-18 as template-primer. […] The antiviral EC50 and EC90 were obtained from the concentration-response curve using the median effective method described previously (see Chou T.-C. & Talalay P. Adv. Enzyme Regul. 1984, 22, 27-55; Belen'kii M. S. & Schinazi R. F. Antiviral Res. 1994, 25, 1-11).

[2] = tested on: HIV-2/pROD10; assay: HIV-2 drug susceptibility in PBM cells; format: cell-based; conditions: Human immunodeficiency virus 2, PBMC
[3] = tested on: PBM cells; assay: Cytotoxicity assay in PBM cells; format: cell-based, human
[4] = tested on: WT (LAI) HIV-1; assay: Single cycle assay in P4/R5 cells, WT HIV-1; format: cell-based
Method: (§1) In a 96-well plate, two- or three-fold serial dilutions of an inhibitor were added to P4/R5 cells in triplicate. […] At 48 h post-infection, a cell lysis buffer and luminescent substrate (Gal-Screen; Tropix/Applied Biosystems) was added to each well, and relative light unit values were determined using a luminometer (ThermoLabSystems, Waltham, Mass.).
(§2) Virus stocks were prepared as described above. Drug susceptibility assays were performed using the single- and multiple-replication-cycle assays also described above.

[5] = tested on: HIV-1 AZT2 (D67N/K70R/T215F/K219Q); assay: microbe, parasite or virus in culture; format: cell-based; conditions: for EC50: Human immunodeficiency virus 1, P4/R5 cells, mean ± standard deviation
Method: as §1, §2

[6] = tested on: HIV-1 AZT3 (M41L/L210W/T215Y); assay: microbe, parasite or virus in culture; format: cell-based; conditions: for EC50: Human immunodeficiency virus 1, P4/R5 cells, mean ± standard deviation
Method: as §1, §2

[7] = tested on: HIV-1 AZT7 (M41L/D67N/K70R/T215F/K219Q); assay: microbe, parasite or virus in culture; format: cell-based; conditions: for EC50: Human immunodeficiency virus 1, P4/R5 cells, mean ± standard deviation
Method: as §1, §2

[8] = tested on: HIV-1 AZT9 (M41L/D67N/K70R/L210W/T215Y/K219Q); assay: microbe, parasite or virus in culture; format: cell-based; conditions: for EC50: Human immunodeficiency virus 1, P4/R5 cells, mean ± standard deviation
Method: as §1, §2

[9] = tested on: HIV-1 K65R; assay: microbe, parasite or virus in culture; format: cell-based; conditions: for EC50: Human immunodeficiency virus 1, P4/R5 cells, mean ± standard deviation
Method: as §1, §2

[10] = tested on: HIV-1 L74V; assay: microbe, parasite or virus in culture; format: cell-based; conditions: for EC50: Human immunodeficiency virus 1, P4/R5 cells, mean ± standard deviation
Method: as §1, §2

[11] = tested on: HIV-1 M184V; assay: microbe, parasite or virus in culture; format: cell-based; conditions: for EC50: Human immunodeficiency virus 1, P4/R5 cells, mean ± standard deviation
Method: as §1, §2

[12] = tested on: HIV-1 Q151Mc (A62V/V75I/F77L/F116Y/Q151M); assay: microbe, parasite or virus in culture; format: cell-based; conditions: mean ± standard deviation
Method: as §1, §2

[13] = tested on: HIV-1 T69SSS (M41L/T69SSS/L210W/T215Y); assay: microbe, parasite or virus in culture; format: cell-based; conditions: Human immunodeficiency virus 1, P4/R5, P4/R5 cells, mean ± standard deviation
Method: as §1, §2

[14] = tested on: adenosine deaminase; assay: Adenosine deaminase assay (deamination of nucleosides); format: in vitro ADME; conditions: 50 μM, pH 7.4
Method: In order to determine if these 6-substituted compounds are converted to G analogs by the enzyme adenosine deaminase, a series of enzyme kinetics experiments were undertaken.
To determine the propensity for deamination of the APN nucleosides by adenosine deaminase, nucleoside compounds were incubated with the commercially available purified enzyme, and the reaction was followed spectrophotometrically. Reaction conditions were 50 mM potassium phosphate, pH 7.4, with 50 μM APN nucleoside in 0.5 mL at 25° C. Reaction time was 7 minutes with 0.002 units of enzyme and 120 minutes with 0.2 units of enzyme. (The unit definition of adenosine deaminase is one unit will deaminate 1.0 μmol of adenosine to inosine per minute at pH 7.5 at 25° C.) Deoxyadenosine was the positive control which was 59% deaminated under the given conditions in 7 minutes with 0.002 units of enzyme. Deoxyguanosine was the negative control. Optical density was measured at 265 nm or 285 nm. The difference in optical density between the beginning and the end of the experiment was divided by the extinction coefficient then multiplied by the volume of the reaction to determine the number of mols of substrate transformed into product. Mols of product were divided by mols of substrate equivalent to a 100% complete reaction then multiplied by 100 to obtain percent deamination. The limit of detection was 0.001 optical density units.

[15] = tested on: MT-2 cells; assay: Intracellular nucleotides formed in MT-2 cells; format: in vitro ADME
[16] = tested on: PBM cells; conditions: human, 4 h, 50 μM
[17] = molecular target: T1, Wild-type (WT) HIV-1 RT (Human immunodeficiency virus type 1 group M subtype B, UniProt P03367); assay: Inhibition of HIV-1 RT DNA synthesis by 6-modified-AZG analogs; format: biochemical; conditions: DNA/DNA template/primer, 200 nM WT RT, 40 min
T1 construct: HIV-1 RT (xxLAI background); inferred from vector p6HRT-PROT and the cited metal chelate purification; made in house; host or cells: bacteria (p6HRT-PROT expression vector)
Method: Wild-type (WT) HIV-1 RT was purified as described previously (1, 2). […] The 214 nucleotide (nt) DNA template, corresponding to the HIV-1 PBS region, was prepared as described previously (4). Reactions were initiated by the addition of 200 nM WT RT, incubated for 40 min at 37° C. and then quenched using 20 μL of gel loading buffer (98% deionized formamide containing 1 mg/mL each of bromophenol blue and xylene cyanol). […] Gels were analyzed using phosphorimaging with a GS525 Molecular Imager and Quantity One Software (Biorad Laboratories, Inc., Hercules, Calif.).

[18] = tested on: 151M complex RT; assay: Studies with purified RT: inhibition of 151M complex RT; format: biochemical, HIV-1
[19] = tested on: CEM cells; assay: Cytotoxicity assay in CEM cells; format: cell-based, human; conditions: Tables 2-4; read-out: CEM IC50
[20] = tested on: Vero cells; assay: Cytotoxicity assay in Vero cells; format: cell-based; conditions: read-out: Vero IC50; Tables 2-4
[21] = tested on: NRTI-resistant HIV-1; assay: Cross-resistance against a broad panel of NRTI-resistant HIV-1; format: cell-based
[22] = Human immunodeficiency virus 1, P4/R5, read-out: EC50 WT (LAI), P4/R5 cells, mean ± standard deviation
[23] = Human immunodeficiency virus 1, P4/R5, P4/R5 cells

Q: For `Cc1cn([C@H]2C[C@H](N=[N+]=[N-])[C@@H](CO)O2)c(=O)[nH]c1=O` [AZT, 3′-azido-3′-deoxythymidine, reference compound], which EC90 ([1]; Human immunodeficiency virus 1, PBMC, PBM cells, read-out: HIV-1/LAI (PBM) EC90) is on record?
A: The EC90 was 20 nM.

Q: And the EC50 [2]?
A: The EC50 was 7.6 nM.

Q: And the EC90 [2]?
A: The EC90 was 64 nM.

Q: And the IC50 ([3]; Homo sapiens, PBMC, Table 5, read-out: Toxicity IC50 PBM)?
A: The IC50 was greater than 100000 nM.

Q: And the EC50 [4, 22]?
A: Its EC50 is 126 ± 40 nM.

Q: What about the EC50 [5] of the same molecule?
A: Its EC50 is 11100 ± 4300 nM.

Q: And the EC50 [6]?
A: The EC50 was 2850 ± 880 nM.

Q: And the EC50 [7]?
A: The EC50 was greater than 90000 nM.

Q: What about the EC50 [8] of the same molecule?
A: Its EC50 is greater than 90000 nM.

Q: What about the EC50 [9] of the same molecule?
A: Its EC50 is 163 ± 60 nM.

Q: And the EC50 [10]?
A: The EC50 was 156 ± 30 nM.

Q: What about the EC50 [11] of the same molecule?
A: Its EC50 is 95 ± 40 nM.

Q: What about the EC50 [12, 23] of the same molecule?
A: Its EC50 is greater than 90000 nM.

Q: What about the EC50 [13] of the same molecule?
A: Its EC50 is greater than 90000 nM.

Q: Which results are given for `[N-]=[N+]=N[C@H]1C[C@H](n2cnc3c(Cl)nc(N)nc32)O[C@@H]1CO` [Compound 68, ((2S,3S,5R)-5-(2-amino-6-chloro-9H-purin-9-yl)-3-azidotetrahydrofuran-2-yl)methanol]?
A: Deamination in 7 min (0.002 units Adenosine Deaminase) ([14]; 7 min): 12.81 ± 1.57%; Deamination in 120 min (0.2 units Adenosine Deaminase) ([14]; 120 min): 240.53 ± 5.86%; level of unchanged drug ([15]; MT-2 cells treated with drug for 30 min): Negligible levels of 6415 were detected; AZG-TP levels compared with AZG treatment ([15]; MT-2 cells, 4 hr at 50 μM): higher; nucleotides detected (LC/MS) [16]: detection of RFS-457-TP; species not detected (LC/MS) [16]: Neither Compound 6415 nor its phosphates were detected

Q: `[N-]=[N+]=N[C@H]1C[C@H](n2cnc3c(N)nc(N)nc32)O[C@@H]1COP(=O)(O)OP(=O)(O)OP(=O)(O)O` [RS-667-TP] was tested. Which “potency of inhibition of HIV-1 RT DNA synthesis (rank order)” value [17] did it give?
A: Its value is “most potent analog”.

Q: What about the “potency against 151M complex RT” value [18] of the same molecule?
A: The value was “less potent than AZG-TP”.

Q: For `CCOC(=O)[C@H](C)NP(=O)(OC[C@H]1O[C@@H](n2cnc3c(N)nc(N)nc32)CC1N=[N+]=[N-])Oc1ccccc1` (stereo partly drawn) [RS-788], which EC50 ([1]; Tables 2-4, n = 3 for the MP prodrugs, read-out: HIV EC50) is on record?
A: The EC50 was 9 nM.

Q: What about the EC90 ([1]; Tables 2-4, n = 3 for the MP prodrugs, read-out: HIV EC90) of the same molecule?
A: The EC90 was 110 nM.

Q: And the IC50 ([3]; Tables 2-4, read-out: PBM IC50)?
A: Its IC50 is 38300 nM.

Q: What about the IC50 [19] of the same molecule?
A: The IC50 was 30400 nM.

Q: What about the IC50 [20] of the same molecule?
A: Its IC50 is greater than 100000 nM.

Q: And the “fold more potent against WT HIV-1 compared to either RS-667 or RFS-457” value [4]?
A: The value was roughly 10 fold.

Q: What about the EC50 [4, 22] of the same molecule?
A: Its EC50 is 120 nM.

Q: What about the EC50 ([4]; read-out: EC50 WT (LAI), P4/R5 cells, mean ± standard deviation) of the same molecule?
A: Its EC50 is 118 ± 60 nM.

Q: And the “Fold-change versus WT, AZT2” value ([5]; EC50 mutant / EC50 WT)?
A: The value was “(2.3) fold”.

Q: What about the EC50 [5] of the same molecule?
A: Its EC50 is 274 ± 70 nM.

Q: And the “Fold-change versus WT, AZT3” value ([6]; EC50 mutant / EC50 WT)?
A: The value was “(1.6) fold”.

Q: And the EC50 [6]?
A: Its EC50 is 189 ± 20 nM.

Q: And the “Fold-change versus WT, AZT7” value ([7]; EC50 mutant / EC50 WT)?
A: The value was “(2.3) fold”.

Q: What about the EC50 [7] of the same molecule?
A: Its EC50 is 270 ± 50 nM.

Q: And the “Fold-change versus WT, AZT9” value ([8]; EC50 mutant / EC50 WT)?
A: The value was “(2.1) fold”.

Q: And the EC50 [8]?
A: Its EC50 is 253 ± 90 nM.

Q: And the “Fold-change versus WT, K65R” value ([9]; EC50 mutant / EC50 WT)?
A: Its value is “(0.9) fold”.

Q: What about the EC50 [9] of the same molecule?
A: The EC50 was 106 ± 70 nM.

Q: And the “Fold-change versus WT, L74V” value ([10]; EC50 mutant / EC50 WT)?
A: Its value is “(0.6) fold”.

Q: And the EC50 [10]?
A: Its EC50 is 73 ± 20 nM.

Q: And the “Fold-change versus WT, M184V” value ([11]; EC50 mutant / EC50 WT)?
A: The value was “(0.4) fold”.

Q: What about the EC50 [11] of the same molecule?
A: The EC50 was 48 ± 30 nM.

Q: What about the EC50 [12, 23] of the same molecule?
A: The EC50 was 280 nM.

Q: What about the EC50 ([12]; P4/R5 cells) of the same molecule?
A: Its EC50 is 277 ± 70 nM.

Q: What about the EC50 [13] of the same molecule?
A: Its EC50 is 440 nM.

Q: What about the “cross-resistance profile compared to AZD, AZG or AZT” value [21] of the same molecule?
A: Its value is “superior cross-resistance profile”.
